Results as given in patent US6855843B2, “Inhibitors of α4 mediated cell adhesion” (Tanabe Seiyaku Co., Ltd., priority 1998, dated 2005).

Each compound was assayed against T1, α4β7 (adhesion of RPMI cells to CS-1) (Homo sapiens, UniProt P13612+P26010) (assay: RPMI-CS-1 cell adhesion assay). Details: adhesion of RPMI B-cell line (expresses α4β7) to CS-1 peptide coated microwells; read-out: RPMI-CS-1 IC50 value range.
T1 construct: endogenous in cells
T1 sequence (P13612 34-1032): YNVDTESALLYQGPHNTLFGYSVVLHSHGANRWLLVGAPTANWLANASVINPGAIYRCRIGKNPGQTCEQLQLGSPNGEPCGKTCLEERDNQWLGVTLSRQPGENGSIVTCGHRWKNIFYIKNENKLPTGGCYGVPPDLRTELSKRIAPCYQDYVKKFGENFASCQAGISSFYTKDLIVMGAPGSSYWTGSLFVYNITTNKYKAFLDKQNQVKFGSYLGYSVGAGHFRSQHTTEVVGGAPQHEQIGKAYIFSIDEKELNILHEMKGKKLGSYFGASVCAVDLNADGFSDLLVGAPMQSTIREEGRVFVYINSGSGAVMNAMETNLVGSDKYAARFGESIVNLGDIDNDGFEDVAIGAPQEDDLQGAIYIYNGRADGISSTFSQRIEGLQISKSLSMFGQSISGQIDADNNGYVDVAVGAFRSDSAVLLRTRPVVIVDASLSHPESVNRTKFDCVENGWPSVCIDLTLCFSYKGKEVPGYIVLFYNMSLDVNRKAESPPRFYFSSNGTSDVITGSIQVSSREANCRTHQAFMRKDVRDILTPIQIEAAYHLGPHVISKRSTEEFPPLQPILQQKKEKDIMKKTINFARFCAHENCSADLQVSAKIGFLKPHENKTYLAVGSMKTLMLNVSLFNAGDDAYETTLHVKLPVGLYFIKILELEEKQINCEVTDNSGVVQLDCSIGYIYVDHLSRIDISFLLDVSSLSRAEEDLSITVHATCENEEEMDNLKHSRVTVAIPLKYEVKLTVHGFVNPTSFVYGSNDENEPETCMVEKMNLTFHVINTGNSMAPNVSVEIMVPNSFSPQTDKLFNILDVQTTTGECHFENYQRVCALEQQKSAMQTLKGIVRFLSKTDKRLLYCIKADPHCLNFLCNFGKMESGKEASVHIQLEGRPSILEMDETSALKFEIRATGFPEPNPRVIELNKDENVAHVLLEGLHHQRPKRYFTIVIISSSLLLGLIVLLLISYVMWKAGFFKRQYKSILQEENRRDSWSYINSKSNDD
T1 sequence (P26010 20-798): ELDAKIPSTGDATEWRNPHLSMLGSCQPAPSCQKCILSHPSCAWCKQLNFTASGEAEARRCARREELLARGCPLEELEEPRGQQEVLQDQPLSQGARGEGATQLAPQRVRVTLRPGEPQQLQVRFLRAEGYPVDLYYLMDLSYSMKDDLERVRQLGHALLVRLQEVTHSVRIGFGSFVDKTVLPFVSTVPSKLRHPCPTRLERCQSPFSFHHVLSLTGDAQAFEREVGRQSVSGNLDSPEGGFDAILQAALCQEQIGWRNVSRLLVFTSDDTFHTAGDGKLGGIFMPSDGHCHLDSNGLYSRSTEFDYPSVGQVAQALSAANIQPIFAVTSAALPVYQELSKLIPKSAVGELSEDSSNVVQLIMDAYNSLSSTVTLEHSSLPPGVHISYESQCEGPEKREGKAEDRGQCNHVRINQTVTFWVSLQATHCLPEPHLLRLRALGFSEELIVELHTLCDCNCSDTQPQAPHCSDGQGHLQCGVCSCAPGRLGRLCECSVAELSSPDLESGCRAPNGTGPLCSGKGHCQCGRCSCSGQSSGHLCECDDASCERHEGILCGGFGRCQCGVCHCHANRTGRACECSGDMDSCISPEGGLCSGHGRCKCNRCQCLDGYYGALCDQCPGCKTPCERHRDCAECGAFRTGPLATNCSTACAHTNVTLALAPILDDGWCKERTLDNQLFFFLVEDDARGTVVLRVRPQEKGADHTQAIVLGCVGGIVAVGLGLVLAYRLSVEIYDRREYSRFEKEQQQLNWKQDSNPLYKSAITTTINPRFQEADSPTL
Assay type: cell-based

IC50	SMILES
< 300 nM	COc1cc(CN2CCCCC2)cc(OC)c1-c1ccc(C[C@H](NC(=O)c2c(Cl)cccc2Cl)C(=O)O)cc1 [Example 256, N-(2,6-Dichlorobenzoyl)-4-[2,6-dimethoxy-4-(piperidinomethyl)phenyl]-L-phenylalanine]
< 300 nM	COc1cc(CN2CCNCC2)cc(OC)c1-c1ccc(C[C@H](NC(=O)c2c(Cl)cccc2Cl)C(=O)O)cc1 [Example 262, N-(2,6-Dichlorobenzoyl)-4-[2,6-dimethoxy-4-[(1-piperazinyl)methyl]phenyl]-L-phenylalanine]
< 300 nM	COc1ccccc1-c1ccc(C[C@H](NC(=O)c2ccc(C(=O)NS(C)(=O)=O)cc2Cl)C(=O)O)cc1 [Example 179, N-[2-Chloro-4-[N-(methanesulfonyl)carbamoyl]-benzoyl]-4-(2-methoxyphenyl)-L-phenylalanine]
1000 to 5000 nM	CCCCNC(=O)c1ccccc1-c1ccc(C[C@H](NC(=O)c2c(Cl)cccc2Cl)C(=O)O)cc1 [Example 55, N-(2,6-Dichlorobenzoyl)-4-[2-(N-n-butylcarbamoyl)phenyl]-L-phenylalanine]
< 300 nM	COc1cccc(OC)c1-c1ccc(C[C@H](NC(=O)c2c(F)cccc2F)C(=O)O)cc1 [Example 3, N-(2,6-Difluorobenzoyl)-4-(2,6-dimethoxyphenyl)-L-phenylalanine]
> 5000 nM	COc1ccccc1-c1ccc(C[C@H](NC(=O)c2ccc(CC(C)C)cc2)C(=O)O)cc1 [Example 102]
< 300 nM	CCN(CC)Cc1cc(OC)c(-c2ccc(C[C@H](NC(=O)c3c(Cl)cccc3Cl)C(=O)O)cc2)c(OC)c1 [Example 132]
< 300 nM	COc1cccc(OC)c1-c1ccc(C[C@H](NC(=O)c2c(Cl)cc(NS(=O)(=O)C(F)(F)F)cc2Cl)C(=O)O)cc1 [Example 184, N-[2,6-Dichloro-4-[(trifluoromethanesulfonyl)amino]benzoyl]-4-(2,6-dimethoxyphenyl)-L-phenylalanine]
< 300 nM	N#Cc1ccccc1-c1ccc(C[C@H](NC(=O)c2c(Cl)cccc2Cl)C(=O)O)cc1 [Example 138]
< 300 nM	COCOc1ccc2c(c1-c1ccc(C[C@H](NC(=O)c3c(Cl)cccc3Cl)C(=O)O)cc1)OCO2 [Example 235, N-(2,6-Dichlorobenzoyl)-4-[2,3-methylenedioxy-6-(methoxymethoxy)phenyl]-L-phenylalanine]
1000 to 5000 nM	COc1ccccc1-c1ccc(C[C@H](NC(=O)c2ccc(NC(=O)c3c(Cl)cccc3Cl)cc2)C(=O)O)cc1 [Example 107]
1000 to 5000 nM	O=C(N[C@@H](Cc1ccc(-c2cccnc2)cc1)C(=O)O)c1c(Cl)cccc1Cl [Example 129]
1000 to 5000 nM	COC(=O)[C@H](Cc1ccc(-c2ccccc2CNc2cccnc2)cc1)NC(=O)c1c(Cl)cccc1Cl [Example 116]
300 to 1000 nM	Cc1ccccc1-c1ccc(C[C@H](NC(=O)c2c(Cl)cccc2Cl)C(=O)O)cc1 [Example 112]
1000 to 5000 nM	O=C(NCCCO)c1ccccc1-c1ccc(C[C@H](NC(=O)c2c(Cl)cccc2Cl)C(=O)O)cc1 [Example 57, N-(2,6-Dichlorobenzoyl)-4-[2-[N-(3-hydroxypropyl)carbamoyl]phenyl]-L-phenylalanine]
300 to 1000 nM	CN1CCCC(COc2ccccc2-c2ccc(C[C@H](NC(=O)c3c(Cl)cccc3Cl)C(=O)O)cc2)C1 (stereo partly shown) [Example 44]
< 300 nM	COc1ccccc1-c1ccc(C[C@H](NC(=O)c2ccc(NS(=O)(=O)c3ccccc3C)cc2Cl)C(=O)O)cc1 [Example 192, N-[2-Chloro-4-[[(2-methylphenyl)sulfonyl]amino]benzoyl]-4-(2-methoxyphenyl)-L-phenylalanine]

IC50	SMILES
1000 to 5000 nM	COc1ccccc1-c1ccc(C[C@H](NC(=O)C(=O)c2ccccc2)C(=O)O)cc1 [Example 95]
1000 to 5000 nM	COc1cc(OCc2c(Cl)cccc2Cl)cc(OC)c1-c1ccc(C[C@H](NC(=O)c2c(Cl)cccc2Cl)C(=O)O)cc1 [Example 221, N-(2,6-Dichlorobenzoyl)-4-[2,6-dimethoxy-4-[(2,6-dichlorophenyl)methoxy]phenyl]-L-phenylalanine]
300 to 1000 nM	COc1ccccc1-c1ccc(C[C@@H](NC(=O)c2cccc(NS(=O)(=O)C(F)(F)F)c2Cl)C(=O)O)cc1 [Example 186, N-[2-Chloro-3-[(trifluoromethanesulfonyl)amino]-benzoyl]-4-(2-methoxyphenyl)-D-phenylalanine]
< 300 nM	COc1cccc(OC)c1-c1ccc(C[C@H](NC(=O)c2c(C)cccc2Cl)C(=O)O)cc1 [Example 277]
300 to 1000 nM	O=C(NCCO)c1ccccc1-c1ccc(C[C@H](NC(=O)c2c(Cl)cccc2Cl)C(=O)O)cc1 [Example 56, N-(2,6-Dichlorobenzoyl)-4-[2-[N-(2-hydroxyethyl)carbamoyl]phenyl]-L-phenylalanine]
1000 to 5000 nM	COC(=O)[C@H](Cc1ccc(-c2cccs2)cc1)NC(=O)c1c(Cl)cccc1Cl [Example 4A, N-(2,6-Dichlorobenzoyl)-4-(2-thienyl)-L-phenylalanine methyl ester]
< 300 nM	O=C(N[C@@H](Cc1ccc(-c2c(F)cccc2F)cc1)C(=O)O)c1c(Cl)cccc1Cl [Example 135, N-(2,6-Dichlorobenzoyl)-4-(2,6-difluorophenyl)-L-phenylalanine]
< 300 nM	CCOc1ccc2c(c1-c1ccc(C[C@H](NC(=O)c3c(Cl)cccc3Cl)C(=O)O)cc1)OCO2 [Example 237, N-(2,6-Dichlorobenzoyl)-4-(2,3-methylenedioxy-6-ethoxyphenyl)-L-phenylalanine]
1000 to 5000 nM	COc1ccccc1-c1ccc(C[C@H](NC(=O)c2ccc(-n3cccc3CO)cc2Cl)C(=O)O)cc1 [Example 291, N-[2-Chloro-4-(2-hydroxymethyl-1-pyrrolyl)benzoyl]-4-(2-methoxyphenyl)-L-phenylalanine]
< 300 nM	COc1cc(CN2CCOCC2)cc(OC)c1-c1ccc(C[C@H](NC(=O)c2c(Cl)cccc2Cl)C(=O)O)cc1 [Example 133]
300 to 1000 nM	O=C(O)C=Cc1ccccc1-c1ccc(C[C@H](NC(=O)c2c(Cl)cccc2Cl)C(=O)O)cc1 (mixture of isomers) [Example 49, N-(2,6-Dichlorobenzoyl)-4-[2-(2-carboxyethenyl)phenyl]-L-phenylalanine]
< 300 nM	C=CCOc1cc(OC)c(-c2ccc(C[C@H](NC(=O)c3c(Cl)cccc3Cl)C(=O)O)cc2)c(OC)c1 [Example 347]
300 to 1000 nM	N#Cc1sccc1-c1ccc(C[C@H](NC(=O)c2c(Cl)cccc2Cl)C(=O)O)cc1 [Example 219, N-(2,6-Dichlorobenzoyl)-4-(2-cyano-3-thienyl)-L-phenylalanine]
300 to 1000 nM	COC(=O)[C@H](Cc1ccc(-c2ccccc2OCC#N)cc1)NC(=O)c1c(Cl)cccc1Cl [Example 33, N-(2,6-Dichlorobenzoyl)-4-[2-(cyanomethoxy)phenyl]-L-phenylalanine methyl ester]
< 300 nM	COc1cc(CN2CCN(CCO)CC2)cc(OC)c1-c1ccc(C[C@H](NC(=O)c2c(Cl)cccc2Cl)C(=O)O)cc1 [Example 250]
< 300 nM	CCOC(=O)Nc1ccc(C(=O)N[C@@H](Cc2ccc(-c3ccccc3OC)cc2)C(=O)O)c(Cl)c1 [Example 66, N-[2-Chloro-4-(ethoxycarbonylamino)benzoyl]-4-(2-methoxyphenyl)-L-phenylalanine]

SMILES	IC50
CC(C)(C)OC(=O)Nc1ccccc1-c1ccc(C[C@H](NC(=O)c2c(Cl)cccc2Cl)C(=O)O)cc1 [Example 22, N-(2,6-Dichlorobenzoyl)-4-[2-(tertbutoxycarbonylamino)phenyl]-L-phenylalanine]	1000 to 5000 nM
